The nature of the test: Luciferase Assay: Using ONE-Glo Luciferase Assay System (Promega Corporation, No. E6110), the luciferase activity of the cells in the wells was measured by a microplate reader (Synergy H1, BioTek Instruments, Inc.) An IC50 value was calculated from the luminescence intensity of each compound concentration, supposing that the luminescence intensity of a group with no addition of the compound and with Wnt-3a stimulation was 100%, and that the luminescence intensity of a group with no addition of the compound and with no Wnt-3a stimulation was 0%. The conditions noted are these: Homo sapiens.

In general, IC50 refers to the point on the concentration scale where inhibition reaches its midpoint. Take `O[C@H]1CC[C@@H](Oc2cccc3cnc(Nc4ccc5nc[nH]c5c4)nc23)CC1`: the IC50 is below 300 nM.

As for `OCc1n[nH]c2cc(Nc3ncc4ccc(F)c(O[C@H]5CC[C@@H](O)CC5)c4n3)ccc12`, the IC50 was below 300 nM.

For `O[C@H]1CC[C@@H](Oc2c(F)ccc3cnc(Nc4ccc5ncsc5c4)nc23)CC1`, the IC50 was below 300 nM.

`Cc1ccc2cnc(Nc3ccc4nc[nH]c4c3)nc2c1O[C@H]1CC[C@@H](O)CC1`: the half-inhibitory concentration (IC50) entry is “in the range around 650 nM”.

Consider `Cc1nc2c(Br)cc(Nc3ncc4cccc(O[C@H]5CC[C@@H](O)CC5)c4n3)cc2[nH]1`, for which the IC50 result was “in the range around 2000 nM”.

As for `O[C@H]1CC[C@@H](Oc2cccc3cnc(Nc4ccnc5ccccc45)nc23)CC1`, the IC50 was below 300 nM.

As to `O[C@H]1CC[C@@H](Oc2c(F)ccc3cnc(Nc4ccc5ncccc5c4)nc23)CC1`, the IC50 is below 300 nM.

Consider `O[C@H]1CC[C@@H](Oc2cccc3cnc(Nc4ccc5scnc5c4)nc23)CC1`, for which the IC50 was below 300 nM.

On to `O[C@H]1CC[C@@H](Oc2cccc3cnc(Nc4cccc5cnccc45)nc23)CC1`, for which the IC50 entry was “in the range around 650 nM”.

Turning to `O[C@H]1CC[C@@H](Oc2c(Br)ccc3cnc(Nc4ccc5nc[nH]c5c4)nc23)CC1`, the IC50 was below 300 nM.

Turning to `Cc1nc2c(C)cc(Nc3ncc4cccc(O[C@H]5CC[C@@H](O)CC5)c4n3)cc2[nH]1`, the IC50 entry was “in the range around 650 nM”.

As for `Cc1cc2nc[nH]c2cc1Nc1ncc2cccc(O[C@H]3CC[C@@H](O)CC3)c2n1`, the IC50 result is “in the range around 650 nM”.

Consider `O[C@H]1CC[C@@H](Oc2cccc3cnc(Nc4ccnc5cc(F)ccc45)nc23)CC1`, for which the IC50 result was “in the range around 650 nM”.

Turning to `O[C@H]1CC[C@@H](Oc2cccc3cnc(Nc4ccc5nc(C(F)(F)F)[nH]c5c4)nc23)CC1`, the IC50 result was “in the range around 2000 nM”.

For the compound `C[C@H](O)c1nc2ccc(Nc3ncc4cccc(O[C@H]5CC[C@@H](O)CC5)c4n3)cc2[nH]1`, the IC50 result is “in the range around 650 nM”.

For `Cc1ccc2cc(Nc3ncc4cccc(O[C@H]5CC[C@@H](O)CC5)c4n3)ccc2n1`, the IC50 result was “in the range around 650 nM”.

As for `Cc1nc2ccc(Nc3ncc4ccc(Br)c(O[C@H]5CC[C@@H](O)CC5)c4n3)cc2[nH]1`, the IC50 entry is “in the range around 650 nM”.

With `O[C@H]1CC[C@@H](Oc2cccc3cnc(Nc4ccc5cnccc5c4)nc23)CC1`, the IC50 entry is “in the range around 650 nM”.

`COCc1nc2ccc(Nc3ncc4cccc(O[C@H]5CC[C@@H](O)CC5)c4n3)cc2[nH]1`: the IC50 result is “in the range around 650 nM”.

Consider `OCc1cc(Nc2ncc3cccc(O[C@H]4CC[C@@H](O)CC4)c3n2)cc2[nH]cnc12`, for which the IC50 was below 300 nM.

As for `O[C@H]1CC[C@@H](Oc2cccc3cnc(Nc4ccc5ncccc5c4)nc23)CC1`, the IC50 result was “in the range around 650 nM”.

As for `O[C@H]1CC[C@@H](Oc2cccc3cnc(Nc4ccc5ccncc5c4)nc23)CC1`, the IC50 result was “in the range around 2000 nM”.

For `OCc1nc2cc(Nc3ncc4cccc(O[C@H]5CC[C@@H](O)CC5)c4n3)ccc2[nH]1`, the IC50 entry is “in the range around 650 nM”.

`O[C@H]1CC[C@@H](Oc2cccc3cnc(Nc4ccc5[nH]c(CN6CCCC6)nc5c4)nc23)CC1`: the IC50 is below 300 nM.

Take `COc1ccc2c(Nc3ncc4cccc(O[C@H]5CC[C@@H](O)CC5)c4n3)ccnc2c1`: the IC50 entry is “in the range around 650 nM”.

`O[C@H]1CC[C@@H](Oc2cc(F)cc3cnc(Nc4ccc5nc[nH]c5c4)nc23)CC1`: the concentration for half-maximal inhibition (IC50) entry was “in the range around 650 nM”.

Values taken from ChEMBL document CHEMBL5725332, “Quinazoline derivative” (2017).
